Legend:
Caco-2 cells = assay: BrdU proliferation ELISA, Caco-2 cells; type: cell-based, human; conditions: 30 μM, 24 h (FIG. 2B)
Method: (§1) For the in vitro experiments, immortalized human colon cancer (HCT116) and human colorectal adenocarcinoma cell lines (Caco-2) and immortalized healthy human colon epithelial cells (HCEC) were cultured in DMEM growth medium (Sigma Aldrich) supplemented with 10% serum bovine fetal (FBS, Sigma Aldrich) and kept at 37° C. in an incubator with a 5% CO2 atmosphere.
(§2) To assess viability, the cells are stained with Trypan blue while cell proliferation, in the presence or absence of ultra-micronized PEA (1-30 μM), was determined using the BrdU proliferation ELISA kit (Roche, Milan, Italy).

[1] = tested on: healthy human colon epithelial cells HCEC; assay: BrdU proliferation ELISA, healthy colon epithelial cells HCEC; type: cell-based; conditions: 24 h (FIG. 2C)
Method: as §1, §2

HCT116 cells [2] = assay: BrdU proliferation ELISA, HCT116 cells; type: cell-based, human; conditions: 1-30 μM, 24 hours of exposure (FIG. 2A)
Method: as §1, §2

cyclin B1 = assay: Gene expression of cyclin B1 by Real-Time PCR in HCT116 cells; type: cell-based, human; conditions: 30 μM for 24 h (FIG. 3B)
Method: as §1
(§3) The expression of the CDK1 and CYCLIN B1 genes was evaluated by virtue of the quantitative Real-Time PCR method using specific primers.

[3] = tested on: AOM-induced ACF, polyps and tumors; assay: AOM mouse model of colon cancer; type: in vivo, male CD1 mice; conditions: 10 mg/kg per os three times a week for 13 weeks, starting the week before first AOM
Method: The in vivo study was conducted on six-week-old (25-30 g) male CD1 mice fed ad libitum and housed in cages with a controlled sleep/wake cycle. Before the start of the experimentation, the animals were subjected to an acclimatization period of 1 week considering all the experimental procedures and protocols, compliant with the principles of the care of laboratory animals approved by the Italian Ministry of Health and respecting the ARRIVE guidelines [Curtis M J et al. Experimental design and analysis and their reporting II: updated and simplified guidance for authors and peer reviewers. […] The animals were chemically treated with AOM (azoxymethane, 40 mg/kg in total) [Neufert C et al. An inducible mouse model of colon carcinogenesis for the analysis of sporadic and inflammation-driven tumor progression. […] A single dose of AOM was injected intraperitoneally at a concentration of 10 mg/kg at the beginning of the first, second, third and fourth weeks of the experiment [Pagano E et al. Pharmacological inhibition of MAGL attenuates experimental colon carcinogenesis, Pharmacol Res 2017; 119: 227-236]. […] The animals were euthanized 12 weeks after the first AOM injection and the colorectal area was collected. […] The detection and quantification of ACF, polyps and colorectal tumors was performed following the protocol of Pagano E et al. Pharmacological inhibition of MAGL attenuates experimental colon carcinogenesis, Pharmacol Res 2017; 119: 227-236.

[4] = tested on: cyclic-dependent kinase 1 (CDK1); assay: Gene expression of CDK1 by Real-Time PCR in HCT116 cells; type: cell-based, human; conditions: 30 μM for 24 h (FIG. 3C)
Method: as §1, §3

HCT116 cells [5] = assay: Cell cycle analysis by flow cytometry (BrdU/7-AAD) of HCT116 cells; type: cell-based, human; conditions: 30 μM for 24 h (FIG. 3A)
Method: as §1
The cell cycle analysis of HCT116 cells was performed following the protocol reported in the BD Pharmingen™ BrdU Flow Kit (BD Biosciences, USA). For the study, 1.5×10^5 cells was sown on 6-well plates and kept overnight in serum-free medium in the presence or absence of ultra-micronized PEA (30μM) for 24 h. The cells were detected with the BriCyte flow cytometer (Mindray, Italy) according to the BrdU (bromodeoxyuridine) and 7-AAD (7-aminoactinomycin D) content thereof. The data obtained were analyzed with FlowJo v10 software (tree Star, USA) to understand the distribution of HCT116 in the different cell cycle phases.

CCCCCCCCCCCCCCCC(=O)NCCO [ultra-micronized PEA, palmitoylethanolamide]
proliferation of non-metastatic Caco-2 cells (Caco-2 cells): significantly reducing the proliferation
proliferation rate of the healthy epithelial cell line HCEC [1]: did not affect the proliferation rate
proliferation rate of HCT116 cells (HCT116 cells [2]): reduces the proliferation rate
expression of cyclin B1 (cyclin B1): increased expression
number of pre-neoplastic ACF lesions ([3]; vs AOM alone (FIG. 4A)): significantly reduces
number of polyps ([3]; vs AOM alone (FIG. 4B)): strong tendency to also reduce
total number of tumors ([3]; vs AOM alone (FIG. 4C)): significantly reduces
expression of CDK1 [4]: increased expression
cell cycle arrest in the G2/M phase (HCT116 cells [5]): blocking neoplastic cells in the G2/M phase
percentage of cells in the S phase (HCT116 cells [5]): significant reduction

Reference: patent publication US20220296541A1, “N-PALMITOYL-ETHANOLAMIDE FOR USE IN THE PREVENTION OF COLORECTAL CARCINOMA” (priority 2021, published 2022)
